# Data published in paper PMC10300102, “In vivo inhibition of nuclear ACE2 translocation protects against SARS-CoV-2 replication and lung damage through epigenetic imprinting” (Nature Communications, 2023).
# Several values for one entry are separate records, joined by “and”; a condition that tells them apart may be missing. Identical values can stand only once. Where a SMILES comes first, the peptide text is derived from it. The star is where a group is joined. Myristoyl = CCCCCCCCCCCCCC(=O)*
# Assays:
# [1] = In vitro monkey plasma assay; format: in vitro ADME, cynomolgus monkey; details: for Concentration: single replicates
# Description: Briefly, pooled frozen plasma was thawed at 37 °C prior to experiments. Plasma was centrifuged at 3720 x g for 5 min and any clots were removed. All blanks and working solutions were aliquoted on an Apricot automation workstation (2 μL/well of working solution (100 μM) with 98 μL plasma for NACE2i peptide (CP300638) and control compounds somatostatin acetate and procaine hydrochloride). All reaction plates containing mixtures of NACE2i, somatostatin acetate, and procaine hydrochloride and plasma were incubated at 37 °C in a water bath for 0, 15, 30, 60, 120, 240, and 360 min. Incubation was stopped with 4% H3PO4 and stop solution (200 ng/mL tolbutamide and 200 ng/mL labetalol in MeOH) to precipitate protein. Each plate was sealed and shaken for 20 min and then centrifuged at 3720 x g at 4 °C for 20 min. After centrifugation, the Apricot workstation was used to transfer 150 μL supernatant to each bioanalysis plate, which was then sealed and shaken for 10 min prior to LC-MS/MS analysis as per the manufacturer’s guidelines. LC: Shimadzu LC 30-AD, MS: QTRAP 6500 + , Autosampler: CTC PAL.
# [2] = tested on: H3K27ac; set-up: species or system golden Syrian hamsters; details: hamster, in vivo
# [3] = tested on: CD14+ monocytes; format: cell-based, human
# [4] = tested on: SARS-CoV-2-induced lung pathology; set-up: species or system golden Syrian hamsters; details: hamster, in vivo
# [5] = tested on: importin-α ΔIBB protein / ACE2 FITC peptide (ACE2-IMPα complex); experiment: Fluorescence polarization competition assay; format: binding; details: Fig. 1b, c: EMSA, microscale thermophoresis and fluorescence polarization
# Description: Fluorescence polarization assays were performed using the CLARIOstar Plus plate reader (BMG Labtech, Ortenberg, Germany) with the fluorescein-Ahx-tagged ACE2 peptide sequence ^766[…]^779 manufactured by GeneScript Biotech (Piscataway, NJ), NACE2i peptide sequence MYR-[…]-OH manufactured by Mimitopes Pty Ltd (Melbourne, Australia), and recombinantly expressed importin-α ΔIBB protein. Each assay contained 50 nM ACE2 FITC, 10 μM importin-α ΔIBB protein, and two-fold serially-diluted NACE2i (starting concentration 400 μM) across 10 wells in a total volume of 200 μL. Fluorescence polarization readings were taken using 96-well black Fluotrac microplates (Greiner Bio-One, Kremsmünster, Austria). Assays were repeated in triplicate and contained a negative control (no inhibitor) and blank (no importin-α ΔIBB protein). Triplicate data were normalized and fitted to a single inhibition curve using GraphPad Prism (GraphPad Software, La Jolla, CA).
# [6] = target: T1, ACE2 (Homo sapiens, UniProt Q9BYF1); experiment: ACE2 activity assay in Caco2 cell lysates; format: biochemical; details: Caco2 cells treated 50 µM 24 h, fluorometric kit, n = 3 technical replicates
# T1 construct: endogenous in cells; host or cells: Caco2
# Description: Caco2 cells were seeded in T75 flasks using complete DMEM medium as above. Cells were treated with NACEi2 (50 µM) for 24 h. 1 × 10^6 cells were harvested, and the ACE2 activity assay was performed using the ACE2 Activity Assay Kit (Fluorometric) (ab273297, Abcam, Cambridge, UK) following the manufacturer’s instructions. ACE2 positive control with diluted ACE2 inhibitor was used as a negative control, and cell lysate with lysis buffer only was used as the background control. Fluorescence (Ex/Em = 320/420 nm) was measured in kinetic mode for 30 min (5 min intervals) at room temperature with a Biotek Synergy H4 Multimode Scanner.
# [7] = tested on: SARS-CoV-2; set-up: species or system golden Syrian hamsters; details: hamster, in vivo
# [8] = hamsters, escalating daily i.p. doses up to 100 mg/kg
# [9] = tested on: NFACT1, C-Rel, ACE2, pPKC-zeta, Nurr1/Nur77, HDAC1 or NFKB p50; format: cell-based; details: Fig. 1d
# [10] = set-up: species or system golden Syrian hamsters; details: hamster, in vivo
# [11] = tested on: PBMCs; format: cell-based, human; details: 10 µM 24 h
# [12] = tested on: SARS-CoV-2 spike protein; set-up: species or system golden Syrian hamsters; details: hamster, in vivo
# [13] = target: T2, ACE2-IMPα interactions in H1299 cells (Homo sapiens, UniProt P52294); experiment: Duolink proximity ligation assay; format: cell-based; details: 0.0015, 0.0977 and 6.25 µM
# T2 construct: endogenous in cells; host or cells: NCI-H1299
# Description: The Duolink proximity ligation assay was used with PLA probe anti-mouse PLUS (DUO92001), PLA probe anti-rabbit MINUS (DUO92005), and the Duolink In Situ Detection Reagent Red kit (DUO92008) (Sigma-Aldrich). Cells were fixed, permeabilized, and incubated with primary ACE2 antibodies targeting the NLS region and IMPα1 (staining conditions are shown in Supplementary Table 4). Cells were processed according to the manufacturer’s instructions. Finally, coverslips were mounted onto slides and examined as above. Image segmentation and analysis were carried out using QuPath open software (version 0.4.3) for bioimage analysis[64] with a custom script. An analysis workflow was developed with the following steps: (i) threshold-based cell detection using DAPI staining to create a mask for detected nuclei along with a 5 µm cell expansion setting to denote the cell cytoplasm boundary; and (ii) use of the QuPath subcellular detection module to detect the Duolink-positive spots in the Alexa Fluor 555 channel in each cell. The two functions were wrapped in a script to allow for batch analysis of images and data export. Total dots were counted per cell and then averaged for each cell and experimental group; approximately 100 cells were counted per group.
# T1 sequence (Q9BYF1 18-805): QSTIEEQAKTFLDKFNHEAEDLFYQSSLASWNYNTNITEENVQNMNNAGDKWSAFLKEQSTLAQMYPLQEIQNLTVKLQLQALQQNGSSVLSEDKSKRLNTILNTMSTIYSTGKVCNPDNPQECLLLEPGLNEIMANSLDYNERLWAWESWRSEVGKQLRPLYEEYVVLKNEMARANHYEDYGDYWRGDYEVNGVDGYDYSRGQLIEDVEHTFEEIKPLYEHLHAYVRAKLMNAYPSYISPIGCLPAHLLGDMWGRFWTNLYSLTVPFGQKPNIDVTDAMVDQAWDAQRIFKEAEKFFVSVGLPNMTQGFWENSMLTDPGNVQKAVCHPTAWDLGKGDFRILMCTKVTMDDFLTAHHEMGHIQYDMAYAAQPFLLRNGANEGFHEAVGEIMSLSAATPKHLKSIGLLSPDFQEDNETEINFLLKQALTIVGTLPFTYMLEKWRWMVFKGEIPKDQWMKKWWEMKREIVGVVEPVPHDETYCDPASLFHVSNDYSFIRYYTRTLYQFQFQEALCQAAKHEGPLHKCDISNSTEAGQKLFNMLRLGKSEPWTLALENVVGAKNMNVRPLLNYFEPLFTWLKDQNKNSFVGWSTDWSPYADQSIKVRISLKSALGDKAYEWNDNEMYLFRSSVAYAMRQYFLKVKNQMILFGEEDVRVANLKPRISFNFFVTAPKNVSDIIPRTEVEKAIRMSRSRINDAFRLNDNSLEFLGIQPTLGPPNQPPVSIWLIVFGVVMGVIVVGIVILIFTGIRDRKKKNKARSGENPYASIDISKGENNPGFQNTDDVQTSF
# T2 sequence (P52294 whole entry): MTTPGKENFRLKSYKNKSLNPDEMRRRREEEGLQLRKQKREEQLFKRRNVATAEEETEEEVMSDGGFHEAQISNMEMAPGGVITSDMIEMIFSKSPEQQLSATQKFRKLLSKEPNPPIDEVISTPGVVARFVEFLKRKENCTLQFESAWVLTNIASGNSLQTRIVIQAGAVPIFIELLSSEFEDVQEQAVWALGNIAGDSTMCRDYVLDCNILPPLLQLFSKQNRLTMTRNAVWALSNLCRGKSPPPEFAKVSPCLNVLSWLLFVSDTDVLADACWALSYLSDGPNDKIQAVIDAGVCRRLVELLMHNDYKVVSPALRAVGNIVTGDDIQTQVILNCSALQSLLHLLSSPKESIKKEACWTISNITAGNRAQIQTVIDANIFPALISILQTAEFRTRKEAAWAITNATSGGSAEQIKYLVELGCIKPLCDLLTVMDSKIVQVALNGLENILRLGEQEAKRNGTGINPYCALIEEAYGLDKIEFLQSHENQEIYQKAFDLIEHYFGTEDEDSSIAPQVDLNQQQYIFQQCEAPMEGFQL
structure (smiles),measurement,setting,value
CCCCCCCCCCCCCC(=O)N[C@H](C(=O)NCC(=O)N[C@H](C(=O)N[C@@H](CCCNC(=N)N)C(=O)N[C@@H](CC(=O)O)C(=O)N[C@@H](CCCNC(=N)N)C(=O)N[C@@H](CCCCN)C(=O)N[C@@H](CCCCN)C(=O)N[C@@H](CCCCN)C(=O)N[C@@H](CC(N)=O)C(=O)N[C@@H](CCCCN)C(=O)N[C@@H](C)C(=O)N[C@@H](CCCNC(=N)N)C(=O)N[C@@H](CO)C(=O)O)[C@@H](C)CC)[C@@H](C)O [NACE2i] (Myristoyl-TGIRDRKKKNKARS-OH),Concentration,"[1]; cynomolgus monkey plasma, time 0 min",2270 nM and 2330 nM
same,Concentration,"[1]; cynomolgus monkey plasma, time 15 min",1960 nM and 1620 nM
same,Concentration,"[1]; cynomolgus monkey plasma, time 30 min",2060 nM and 2030 nM
same,Concentration,"[1]; cynomolgus monkey plasma, time 60 min",1840 nM and 1540 nM
same,Concentration,"[1]; cynomolgus monkey plasma, time 120 min",1740 nM and 1890 nM
same,Concentration,"[1]; cynomolgus monkey plasma, time 240 min",1980 nM and 1920 nM
same,% Remaining,"[1]; cynomolgus monkey plasma, time 360 min, n=2",76.7741%
same,Concentration,"[1]; cynomolgus monkey plasma, time 360 min",1740 nM and 1850 nM
same,"remaining at 0.25 h, 2 µM","[1]; monkey, plasma (pooled, frozen), cynomolgus monkey plasma, time 15 min, n=2",86.2%
same,"remaining at 0.5 h, 2 µM","[1]; monkey, plasma (pooled, frozen), cynomolgus monkey plasma, time 30 min, n=2",90.6%
same,"remaining at 1 h, 2 µM","[1]; monkey, plasma (pooled, frozen), cynomolgus monkey plasma, time 60 min, n=2",81.1%
same,"remaining at 2 h, 2 µM","[1]; monkey, plasma (pooled, frozen), cynomolgus monkey plasma, time 120 min, n=2",76.6%
same,"remaining at 4 h, 2 µM","[1]; monkey, plasma (pooled, frozen), cynomolgus monkey plasma, time 240 min, n=2",87.4%
same,half-life at 2 µM,"[1]; pooled male cynomolgus monkey plasma, 2 µL of 100 µM working solution + 98 µL plasma, 37 °C, 0-360 min, LC-MS/MS, read-out: T1/2 in plasma",14.5 h
same,% remaining in plasma after 360 min incubation,"[1]; pooled male cynomolgus monkey plasma, 2 µL of 100 µM working solution + 98 µL plasma, 37 °C, 360 min, LC-MS/MS",78%
same,H3K27ac along with ACE2me in lung tissues,[2],significant H3K27ac induction
same,ACE2me expression in CD14+ monocytes,[3],induced
same,CD14+ACE2 NFI,[3],581.219 and 687.373 and 742.928 and 1006.4 and 850.738 and 975.203 and 677.429 and 828.535
same,IL-6 expression in CD14+ monocytes,[3],significantly decreased
same,nuclear ACE2 expression in CD14+ monocytes,[3],significantly decreased
same,nuclear ACE2 expression in infected CD14+ monocytes,[3],reduced
same,lung histopathological changes,[4],"minimal alveolar, bronchiolar, or vascular changes"
same,mean cumulative histopathological scores versus vehicle,[4],substantially lower
same,Bronchitis/bronchiolitis,[4]; ip,0
same,Interstital inflammation,[4]; ip,0
same,Vasculitis,[4]; ip,0
same,inhibition of the ACE2-IMPα complex in vitro,[5],directly inhibiting the ACE2-IMPα complex
same,ACE2 enzymatic activity,[6],no impact
same,lung infectious titers (TCID50),[7],significantly reduced
same,body temperature,[8],minimal changes in body temperature
same,body weight,[8],without a decrease in body weight
same,discomfort,[8],no observable discomfort
same,selectivity for nuclear ACE2 versus other nuclear proteins of the importin pathway (NFI),[9],specifically targets nuclear ACE2 and not other nuclear proteins
same,decrease in mean body weights,[10],lower than vehicle controls
same,IL-6 expression,[11],reduced
same,perforin expression,[11],increased
same,SARS-CoV-2 spike protein signal intensity,[12],significantly reduced
same,population of SARS-CoV-2 spike protein-positive cells in bronchiolar epithelium,[12],significantly reduced
same,ACE2-IMPα interactions (Duolink),[13],significantly inhibited ACE2-IMPα interactions in a dose-dependent manner
